Columns and labels:
Plasmodium falciparum [1] = assay: Antimalarial activity against chloroquine-resistant Plasmodium falciparum W2; assay type: functional, organism-based
Hepatocyte = assay: Cytotoxicity against rat hepatocytes; assay type: functional, cell-based
Plasmodium falciparum [2] = assay: Antimalarial activity against chloroquine-sensitive Plasmodium falciparum D6; assay type: functional, organism-based

Structure (SMILES) | IC50 (Plasmodium falciparum [1]) [µM] | IC50 (Hepatocyte) [µM] | IC50 (Plasmodium falciparum [2]) [µM]
Cc1ccc2c(=O)n(CC(=O)C[C@H]3NCCC[C@@H]3O)cnc2c1 | 0.0022 | 0.117 | 0.002
CC(C)(C)c1cccc2ncn(CC(=O)C[C@H]3NCCC[C@@H]3O)c(=O)c12 | 0.16 | 70 | 0.132
O=C(C[C@H]1NCCC[C@@H]1O)Cn1cnc2ccc(C(F)(F)F)cc2c1=O | 0.016 | 15 | 0.014
O=C(C[C@H]1NCCC[C@@H]1O)Cn1cnc2ccncc2c1=O | 0.0018 | 17 | 0.0015
O=C(C[C@H]1NCCC[C@@H]1O)Cn1cnc2cccc(C(F)(F)F)c2c1=O | 0.00041 | 19 | 0.00043
COc1cccc2c(=O)n(CC(=O)C[C@H]3NCCC[C@@H]3O)cnc12 | 0.0013 | 0.016 | 0.0012
COc1ccc2c(=O)n(CC(=O)C[C@H]3NCCC[C@@H]3O)cnc2c1 | 0.0013 | 0.015 | 0.0014
O=C(C[C@H]1NCCC[C@@H]1O)Cn1cnc2cccc(F)c2c1=O | 0.0013 | 19 | 0.0013
Cc1cccc2c(=O)n(CC(=O)C[C@H]3NCCC[C@@H]3O)cnc12 | 0.0019 | 0.14 | 0.0017
O=C(C[C@H]1NCCC[C@@H]1O)Cn1cnc2ccc(F)c(F)c2c1=O | 0.00039 | 17 | 0.00033
O=C(C[C@H]1NCCC[C@@H]1O)Cn1cnc2cnccc2c1=O | 0.073 | 19 | 0.063
O=C(C[C@H]1NCCC[C@@H]1O)Cn1cnc2ncccc2c1=O | 0.109 | 22 | 0.07
CC(C)(C)c1ccc2ncn(CC(=O)C[C@H]3NCCC[C@@H]3O)c(=O)c2c1 | 0.188 | – | 0.165
O=C(C[C@H]1NCCC[C@@H]1O)Cn1cnc2c(F)cccc2c1=O | 0.1 | 16 | 0.103
O=C(C[C@H]1NCCC[C@@H]1O)Cn1cnc2ccc(F)cc2c1=O | 0.005 | 13 | 0.0047
O=C(C[C@H]1NCCC[C@@H]1O)Cn1cnc2cccnc2c1=O | 0.0013 | 18 | 0.0012
CCN(CC)CCCC(C)Nc1ccnc2cc(Cl)ccc12 (stereo unspecified) [CHLOROQUINE] | – | 19 | –
O=C(C[C@@H]1NCCC[C@H]1O)Cn1cnc2ccccc2c1=O [FEBRIFUGINE] | 0.0019 | 0.169 | 0.0016

Source: ChEMBL document CHEMBL1146137, “Synthesis and evaluation of febrifugine analogues as potential antimalarial agents” (Bioorg Med Chem Lett, 2006)
